Experimental data published in patent US20100111874A1, “METHOD OF CANCER DETECTION AND TREATMENT” (University of Medicine and Dentistry of New Jresey, priority 2007, published 2010).

Tests used:
Format in all cases: cell-based
[1] = system: ZR-75-1 and BT474 breast cancer cells; assay: Cell counting assay of CPT sensitivity; details: ZR-75-1 vs BT474 cells; one hr acute exposure
Procedure: Breast cancer ZR-75-1 and BT474 cells are treated with CPT for 1 hr followed by incubation in CPT-free medium for 3 days. Cell survival is determined by cell counting using a Coulter counter as described in Materials and Methods.

[2] = system: ZR-75-1 cells stably expressing ISG15 or UbcH8 shRNA; assay: Clonogenic survival assay
Procedure: Cell survival assays. MTT assay: Cells (3000 cells/well) are plated in 96-well microtiter plates and incubated at 37° C. in a CO2 incubator. For determination of IC50, cells are treated with varying concentrations of CPT for four days. Cells are then incubated with MTT (3-(4,5-dimethylthiazol-2-yl)-2,5-diphenyltetrazolium bromide) for 4 hrs at 37° C. The dye produced by viable cells is dissolved in DMSO and the optical density measured at 570 nm. All assays are performed at least twice in six replicate wells. Clonogenic assay: Cells (100-500 cells/plate) are plated in 6-well tissue culture plates and incubated at 37° C. in a CO2 incubator. Cells are then treated with various concentrations of CPT for 1 hr. Following CPT treatment, cells are washed free of CPT and placed in fresh medium. After 10 days, survived colonies are stained with Methylene blue and counted using the Minicount machine. Cell counting assay: Logarithmically growing cells are treated with various concentrations of CPT for 1 hr. CPT is then removed by washing the plates with CPT-free medium four times. […] Cell survival is determined by counting cells using the Coulter counter after trypsinization.
Example No. 3. […] Cell lysates of ZR-75-1 clones expressing either control shRNA (lane #1) or ISG15 shRNA (lanes #2) are analyzed by 15% SDS-PAGE. […] Equal protein loading is assessed by re-probing the same membrane with anti-tubulin antibody (lower panel). […] Equal protein loading is assessed by re-probing the same membrane blot with anti-tubulin antibody (lower panels).
Example No. 4. […] Cell lysates prepared from ZR-75-1 clones expressing either control shRNA (lane #1) or UbcH8 shRNA (lanes #2 and 3, from two independent clones), and the purified UbcH8 protein (lane #4) are analyzed by 15% SDS-PAGE. […] Equal protein loading is assessed by re-probing the same membrane with anti-tubulin antibody (lower panels). […] Cell lysates prepared from ZR-75-1 clones expressing either control shRNA (lane #1) or UbcH8 shRNA (lanes #2 and 3, two independent clones), and the purified UbcH8 protein (lane #4) are analyzed by 15% SDS-PAGE. […]

[3] = target: T1, TOP1-DNA covalent complexes (Homo sapiens, UniProt P11387); assay: Band depletion assay for TOP1 cleavage complexes; details: MCF7/RC vs MCF7; CPT 25 μM for 15 min
T1 construct: endogenous in cells; host or cells: MCF7 and MCF7/RC breast cancer cells
T1 sequence (P11387 2-765 limits assumed): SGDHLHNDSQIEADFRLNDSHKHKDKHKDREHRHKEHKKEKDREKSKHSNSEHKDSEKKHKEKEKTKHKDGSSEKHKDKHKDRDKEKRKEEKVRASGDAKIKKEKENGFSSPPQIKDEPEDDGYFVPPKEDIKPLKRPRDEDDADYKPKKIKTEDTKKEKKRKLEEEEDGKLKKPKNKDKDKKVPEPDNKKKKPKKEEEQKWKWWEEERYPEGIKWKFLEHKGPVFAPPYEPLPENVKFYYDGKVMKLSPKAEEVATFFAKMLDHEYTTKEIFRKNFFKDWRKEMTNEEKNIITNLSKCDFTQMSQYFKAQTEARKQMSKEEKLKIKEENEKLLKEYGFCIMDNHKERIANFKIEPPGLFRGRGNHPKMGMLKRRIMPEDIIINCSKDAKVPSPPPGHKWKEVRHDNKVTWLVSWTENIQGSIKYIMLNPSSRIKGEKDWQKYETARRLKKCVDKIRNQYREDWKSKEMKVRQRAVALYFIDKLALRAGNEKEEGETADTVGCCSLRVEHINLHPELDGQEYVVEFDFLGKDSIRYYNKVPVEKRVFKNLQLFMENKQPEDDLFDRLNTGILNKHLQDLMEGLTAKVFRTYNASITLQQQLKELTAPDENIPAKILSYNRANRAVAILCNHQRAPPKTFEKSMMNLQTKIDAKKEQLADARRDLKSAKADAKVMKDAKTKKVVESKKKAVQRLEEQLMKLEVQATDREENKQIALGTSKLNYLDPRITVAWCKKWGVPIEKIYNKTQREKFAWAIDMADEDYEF
Procedure: Band depletion assay for TOP1 cleavage complexes. Cells (106/sample) are treated with CPT (25 μM in 1% DMSO) for various times at 37° C. Cells are then lysed with 0.2 N NaOH containing 2 mM EDTA as described previously (14). Cell lysates are then neutralized with 1/10 volume of a solution containing 10% NP-40, 1 M Tris (pH 7.4), 0.1 M MgCl2, 0.1 M CaCl2, 10 mM dithiothreitol, 1 mM EGTA, and a mixture of peptide protease inhibitors (100 μg/ml each of leupeptin, pepstatin, and aprotinin), followed by the addition of another 1/10 volume of 2 N HCl. Reactions are terminated by the addition of SDS-PAGE sample buffer. Immunoblotting analysis of cell lysates is carried out using anti-Scl-70 antibody from scleroderma patients as described above.

For `CC[C@@]1(O)C(=O)OCc2c1cc1n(c2=O)Cc2cc3ccccc3nc2-1` [CPT, camptothecin], which “fold greater sensitivity to CPT based on IC50 values” [1] is on record?
Its value is “greater than 50 fold”.

What about the “resistance to CPT, clonogenic survival” value ([2]; ZR/ISG15-shRNA1 vs control-shRNA cells, one hr acute exposure) of the same compound?
The value was “much more resistant”.

And the “resistance to CPT, clonogenic survival” value ([2]; ZR/UbcH8-shRNA1 vs ZR/control-shRNA2, one-hr acute CPT exposure)?
Its value is “much more resistant”.

And the “resistance to CPT, clonogenic survival” value ([2]; ZR/UbcH8-shRNA2 vs ZR/control-shRNA2, one-hr acute CPT exposure)?
The value was “much more resistant”.

What about the “amount of TOP1-DNA covalent complexes” value [3] of the same compound?
The value was “No change”.
